Source: patent US11371020B2, “Uses of epithelial-to-mesenchymal inhibitors in generating pacemaker cells” (Emory University, priority 2016, dated 2022)
“Also recorded” adds a separate entry of the source.

Experiments:
[1] = system: TBX18-induced pacemaker cells (TBX18-iPCs); assay: Electrode-to-electrode impedance measurement of migration of TBX18-iPCs; format: cell-based, rat; conditions: A83-01 0.5 microM; NRVM transduced with adenoviral human TBX18
Protocol: TBX18-iPCs were created by transducing freshly isolated neonatal rat ventricular myocytes (NRVM) with an adenoviral vector expressing human TBX18. TBX18-iPC were cultured with an inhibitor of EMT, A83-01 (0.5 microM).
(§1) Experiments were performed to test whether i) TBX18-induced pacemaker cells (TBX18-iPCs) migrate, and ii) inhibition of EMT in TBX18-iPCs may stop the migration, thereby enhancing its pacing function. (See FIGS. 1-8). TBX18-iPCs were created by transducing freshly-isolated neonatal rat ventricular myocytes (NRVM) with an adenoviral vector expressing human TBX18. TBX18-iPC were cultured with an inhibitor of EMT, A83-01. […] TBX18-iPCs beat in synchrony upon EMT inhibition, and their automaticity persists over long-term.

ALK-5 = biological target: T1, ALK-5 (Homo sapiens, UniProt P36897); conditions: cited from earlier work
T1 sequence (P36897 34-503): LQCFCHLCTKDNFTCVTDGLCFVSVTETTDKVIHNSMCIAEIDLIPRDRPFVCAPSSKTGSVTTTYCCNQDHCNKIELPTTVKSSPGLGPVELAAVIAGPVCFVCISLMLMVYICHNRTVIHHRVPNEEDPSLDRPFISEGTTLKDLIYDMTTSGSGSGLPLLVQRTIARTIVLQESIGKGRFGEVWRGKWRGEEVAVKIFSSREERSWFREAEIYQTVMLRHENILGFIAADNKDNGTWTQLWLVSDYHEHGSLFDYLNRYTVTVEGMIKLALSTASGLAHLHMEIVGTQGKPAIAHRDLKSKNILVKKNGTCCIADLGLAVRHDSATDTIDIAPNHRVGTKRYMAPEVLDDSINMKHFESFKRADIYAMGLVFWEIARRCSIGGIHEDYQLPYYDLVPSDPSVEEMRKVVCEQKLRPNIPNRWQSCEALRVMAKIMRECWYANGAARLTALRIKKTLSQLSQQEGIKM

EMT genes = assay: EMT-related gene expression in TBX18-induced pacemaker cells; format: cell-based, rat; conditions: TBX18-iPCs cultured with A83-01
Protocol: as §1

TBX18-iPCs = assay: Cx43 localisation, gap junctional coupling and Hcn4 expression in TBX18-iPCs; format: cell-based, rat
Protocol: as §1
TBX18 mediates both automaticity and EMT in iPCs.

[2] = system: TBX18-induced pacemaker cells (TBX18-iPCs); assay: Beating, field potential and Ca2+ transient recording of TBX18-iPCs; format: cell-based, rat
Protocol: as §1

Cc1cccc(-c2nn(C(=S)Nc3ccccc3)cc2-c2ccnc3ccccc23)n1 [A83-01, 3-(6-methyl-2-pyridinyl)-N-phenyl-4-(4-quinolinyl)-1H-pyrazole-1-carbothioamide]
migration of TBX18-iPCs [1]: remain stationary; also recorded: migratory behavior is deleted
Smad signaling and epithelial-to-mesenchymal transition by transforming growth factor-beta (ALK-5): inhibits
EMT gene expression in the iPCs (EMT genes): down-regulates EMT genes
gap junctional coupling of EMT-inhibited TBX18-iPCs (TBX18-iPCs): long-term gap junctional coupling
Hcn4 expression in TBX18-iPCs (TBX18-iPCs; upon EMT inhibition): enhances Hcn4 expression
localisation of nuclear-bound Cx43 proteins in TBX18-iPCs (TBX18-iPCs; upon EMT inhibition): translocated to the sarcolemma
persistence of automaticity of iPMs ([2]; in A83-01 versus without it): persists much longer
synchrony of pacing ([2]; in the presence of A83-01): synchronous and rhythmic pacing; also recorded: pace in unity
beating rate of TBX18-iPCs ([2]; upon EMT inhibition): beating rate increases
contraction and relaxation speed of TBX18-iPCs ([2]; upon EMT inhibition): contract and relax faster
